Experimental data reported in patent publication US6340678B1, “4,4-difluoro-2,3,4,5-tetrahydro-1H-1-benzoazepine derivatives and drug compositions containing them” (Yamanouchi Pharmaceutical Co., Ltd., priority 1997, dated 2002).
Positions of bridges follow the written chain, without caps; N, C: chain ends. Non-standard residues stand in square brackets, D forms with d. Residues, ends and D or L forms follow the SMILES beside them. Orn = NCCC[C@H](N)C(=O)O; Mpa = O=C(O)CCS

Target: T1, oxytocin receptor (Rattus norvegicus, UniProt P70536)
T1 construct: uterus was excised, and a membrane sample was prepared therefrom; from tissue; host or cells: rat uterus (membrane preparation after diethylstilbestrol dipropionate treatment)
T1 sequence (P70536 1-388): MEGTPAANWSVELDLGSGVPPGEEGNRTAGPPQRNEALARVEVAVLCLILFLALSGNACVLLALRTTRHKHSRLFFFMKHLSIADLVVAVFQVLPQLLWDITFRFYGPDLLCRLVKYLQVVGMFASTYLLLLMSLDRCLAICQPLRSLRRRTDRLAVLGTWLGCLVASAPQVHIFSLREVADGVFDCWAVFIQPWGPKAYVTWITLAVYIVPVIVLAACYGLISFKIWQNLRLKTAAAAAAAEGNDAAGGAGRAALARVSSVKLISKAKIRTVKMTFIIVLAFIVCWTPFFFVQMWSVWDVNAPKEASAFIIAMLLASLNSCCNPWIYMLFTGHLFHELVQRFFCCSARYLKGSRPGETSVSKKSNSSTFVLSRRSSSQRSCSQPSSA
Assay: Oxytocin receptor binding assay ([3H]-oxytocin, rat uterine membrane sample)
Procedure: (Oxytocin Receptor Binding Assay)
Preparation of Uterine membrane was prepared by a method of Soroff, et al. (J. Biol. Chem., 249: 1376, 1974) while a binding assay was performed by a method of Pettibone, et al. (Endocrinology, 125: 217, 1989). Diethylstilbestrol dipropionate (0.3 mg/kg) was administered to a rat intraperitoneally, and after 18 to 24 hours, uterus was excised, and a membrane sample was prepared therefrom. [^3H]-Oxytocin (0.5 nM; specific activity=30 to 60 Ci/mmol), 50 μg of the membrane sample and a test drug (10^−8 to 10^−5 M) were incubated at room temperature for 60 minutes in 250 μl (total volume) of 50 mM Tris hydrochloride buffer (pH 7.4) containing 10 mM of magnesium chloride and 0.1% of bovine serum albumin (BSA). […] The glass filter was taken out, well dried and mixed with a cocktail for liquid scintillation, the amount of [^3H]-oxytocin bound to the sample was determined by a liquid scintillation counter, and the inhibition rate was calculated from the following equation: […]
wherein [L] is a concentration of the radioactive ligand; and Kd is a dissociation constant calculated from the scattered plots.
Then, a negative logarithmic value of Ki calculated hereinabove was taken as pKi. […]

`CCOc1ccc(C[C@H]2NC(=O)CCSSC[C@@H](C(=O)N3CCC[C@H]3C(=O)N[C@@H](CCCN)C(=O)NCC(N)=O)NC(=O)[C@H](CC(N)=O)NC(=O)[C@H]([C@@H](C)O)NC(=O)[C@H]([C@@H](C)CC)NC2=O)cc1` [atosiban] ([Mpa][dY](Et)ITNCP[Orn]G-NH2; disulfide 1-6) gave a Ki of 11.7 nM.
